The subject of data set [1] is eosinophils. Briefly: Phase 2 CSU study: immune cell phenotyping, eosinophil levels. Particulars: for Eosinophils (10^9/L) Median Percent Change from Baseline: Baseline to Week 12. The data set is classed as in vivo, human. The text has this:
Collection of biological samples for other biomarker research was also part of this study. The following samples for biomarker research were required and were to be collected from all participants in this study: • Serum and plasma samples for soluble biomarkers and cellular tests. Analytes included IgG anti-IgE, IgG anti-FcεRI, IgG anti-TPO, IgE anti-TPO, IL-31, and sMRGPRX2. • Blood samples for immune cell phenotyping, including measurement of eosinophil levels • Blood samples for BTK occupancy in peripheral blood mononuclear cells (PBMCs) at selected sites

For data set [2] the following is noted: humans, oral administration; cited from earlier work.
The subject of data set [3] is mouse model of immune thrombocytopenia. Particulars: mouse ITP model; cited from earlier work.

Turning to `CC(C)(C=C(C#N)C(=O)N1CCC[C@@H](n2nc(-c3ccc(Oc4ccccc4)cc3F)c3c(N)ncnc32)C1)N1CCN(C2COC2)CC1` [rilzabrutinib, (R)-2-[3-[4-amino-3-(2-fluoro-4-phenoxy-phenyl)pyrazolo[3,4-d]pyrimidin-1-yl]piperidine-1-carbonyl]-4-methyl-4-[4-(oxetan-3-yl)piperazin-1-yl]pent-2-enenitrile], in data set [1] (400 mg TID, Week 12), the “reduction in eosinophil levels” value came out at 29.0%. Further, the entries for the “Eosinophils (10^9/L) Median Percent Change from Baseline” value in data set [1] (400 mg BID), in data set [1] (400 mg QPM) and in data set [1] (400 mg TID) were −11.8%, 7.7% and −29.0%, respectively. In data set [2], the absorption entry is reported as “rapidly absorbed”. In addition, the half-life (in general, the time in which the quantity being followed falls by half) in data set [2] was 3 to 4 h. The platelet loss result in data set [3] is “reduction”.

Source of the values: US20260256792A1, “TREATMENT OF CHRONIC SPONTANEOUS URTICARIA BY ADMINISTERING (R)-2-[3-[4-AMINO-3-(2-FLUORO-4-PHENOXY-PHENYL)PYRAZOLO[3,4-D]PYRIMIDIN-1-YL]PIPERIDINE-1-CARBONYL]-4-METHYL-4-[4-(OXETAN-3-YL)PIPERAZIN-1-YL]PENT-2-ENENITRILE” (priority 2023, published 2026).
